Results from ChEMBL document CHEMBL1158225, “Antiplatelet flavonoids from seeds of Psoralea corylifolia” (J Nat Prod, 1996).
The source made the active and inactive calls. The calls are words filed in the database; no cut-off is given here.

Experiments:
Type in all cases: functional, cell-based
Conditions in all cases: Oryctolagus cuniculus
[1] = Antiplatelet activity against rabbit platelet assessed as inhibition of collagen-induced platelet aggregation preincubated for 3 mins by turbidimetric method
[2] = (§1) Antiplatelet activity against rabbit platelet assessed as inhibition of platelet-activating factor-induced platelet aggregation preincubated for 3 mins by turbidimetric method
[3] = Antiplatelet activity against rabbit platelet assessed as inhibition of arachidonic acid-induced platelet aggregation preincubated for 3 mins by turbidimetric method
[4] = tested on: Platelet; experiment: as §1
[5] = tested on: Platelet; experiment: Antiplatelet activity against rabbit platelet assessed as inhibition of arachidonic acid-induced platelet aggregation at 300 uM preincubated for 3 mins by turbidimetric method
[6] = tested on: Platelet; experiment: Antiplatelet activity against rabbit platelet assessed as inhibition of platelet-activating factor-induced platelet aggregation at 300 uM preincubated for 3 mins by turbidimetric method
[7] = tested on: Platelet; experiment: Antiplatelet activity against rabbit platelet assessed as inhibition of collagen-induced platelet aggregation at 300 uM preincubated for 3 mins by turbidimetric method

For `CC(=O)Oc1ccccc1C(=O)O` [ASPIRIN], which IC50 [1] is on record?
The IC50 was 30.5 µM.

Which results are given for `CC(C)=CCc1c(O)ccc(C(=O)/C=C/c2ccc(O)cc2)c1O` [ISOBAVACHALCONE]?
IC50 [2]: 41.6 µM; IC50 [1]: 65.1 µM; IC50 [3]: 0.5 µM

Which IC50 [2] does the source give for `CCCCCCCCCCCCCCCCCCNC(=O)OCC(COP(=O)([O-])OCC[n+]1ccsc1)OC` (configuration not stated) here?
The IC50 was 1.1 µM.

With `CC(C)=CCc1cc(-c2coc3cc(O)ccc3c2=O)ccc1O` [NEOBAVAISOFLAVONE] as the compound, how does the IC50 [2] read?
The IC50 was 2.5 µM.

What about the Activity [4] of the same compound?
Its Activity is “Dose-dependent effect”.

What about the IC50 [1] of the same compound?
The IC50 was 62.4 µM.

What about the IC50 [3] of the same compound?
The IC50 was 7.8 µM.

Which results are given for `CC(C)=CCc1cc2c(cc1O)O[C@H](c1ccc(O)cc1)CC2=O`?
Activity [5]: inactive; Activity [6]: inactive; Activity [7]: inactive
